Results published in patent US9833497B2, “Human originated EGF domain proteins and use of the same” (CHENGDU SOURCEBIO LIMITED-LIABILITY COMPANY, priority 2013, dated 2017).

system: Citrobacter diversus; experiment: MIC against Gram-negative bacteria: Citrobacter diversus; type: cell-based; conditions: Citrobacter diversus; 96-well plate, 5×10^5 CFU/mL, 37° C., 10 h
How it was run: (§1)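 LB broth cultures at McFarland 0.5, spun down, resuspended, diluted to 5×10^5 CFU/mL final. Two-fold serial dilutions of purified human EGF domain proteins, triplicate. 37° C, 175 rpm shaking. Endpoint: no visible growth.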

Substance | MIC (μg/mL) C. diversus [µg/mL] | MIC against C. diversus [µg/mL]
PRT98 (DINECATPSKVSCGKFSDCWNTEGSYDCVCSPGYEPVSGAKTFKNESENTCQ; listed as Homo sapiens) | 25 | –
PRT87 (DACLLNPCQNQGSCRHLPGAPHGYTCDCVGGYFGHHCE; listed as Homo sapiens) | 50 | –
PRT1287 (EPCRKLYCLHGICQPNATPGPMCHCEAGWVGLHCD; listed as Homo sapiens) | – | 12.5
PRT1251 (CAFVCADCGSGHCDFQSGRCLCSPGVHGPHCN; listed as Homo sapiens) | – | 50

system: Proteus vulgaris; experiment: MIC against Gram-negative bacteria: Proteus vulgaris; type: cell-based; conditions: Proteus vulgaris; 96-well plate, 5×10^5 CFU/mL, 37° C., 10 h
How it was run: as §1

Substance | MIC (μg/mL) P. vulgaris [µg/mL] | MIC against P. vulgaris [µg/mL]
PRT98 (DINECATPSKVSCGKFSDCWNTEGSYDCVCSPGYEPVSGAKTFKNESENTCQ; listed as Homo sapiens) | 12.5 | –
PRT87 (DACLLNPCQNQGSCRHLPGAPHGYTCDCVGGYFGHHCE; listed as Homo sapiens) | 25 | –
PRT1287 (EPCRKLYCLHGICQPNATPGPMCHCEAGWVGLHCD; listed as Homo sapiens) | – | 50
PRT1251 (CAFVCADCGSGHCDFQSGRCLCSPGVHGPHCN; listed as Homo sapiens) | – | 25

system: Proteus mirabilis; experiment: MIC against Gram-negative bacteria: Proteus mirabilis; type: cell-based; conditions: Proteus mirabilis; 96-well plate, 5×10^5 CFU/mL, 37° C., 10 h
How it was run: as §1

Substance | MIC (μg/mL) P. mirabilis [µg/mL] | MIC against P. mirabilis [µg/mL]
PRT98 (DINECATPSKVSCGKFSDCWNTEGSYDCVCSPGYEPVSGAKTFKNESENTCQ; listed as Homo sapiens) | 50 | –
PRT87 (DACLLNPCQNQGSCRHLPGAPHGYTCDCVGGYFGHHCE; listed as Homo sapiens) | 12.5 | –
PRT1287 (EPCRKLYCLHGICQPNATPGPMCHCEAGWVGLHCD; listed as Homo sapiens) | – | 12.5
PRT1251 (CAFVCADCGSGHCDFQSGRCLCSPGVHGPHCN; listed as Homo sapiens) | – | 12.5

system: Enterobacter cloacae; experiment: MIC against Gram-negative bacteria: Enterobacter cloacae; type: cell-based; conditions: Enterobacter cloacae; 96-well plate, 5×10^5 CFU/mL, 37° C., 10 h
How it was run: as §1

Substance | MIC (μg/mL) E. cloacae [µg/mL] | MIC against E. cloacae [µg/mL]
PRT98 (DINECATPSKVSCGKFSDCWNTEGSYDCVCSPGYEPVSGAKTFKNESENTCQ; listed as Homo sapiens) | 25 | –
PRT87 (DACLLNPCQNQGSCRHLPGAPHGYTCDCVGGYFGHHCE; listed as Homo sapiens) | 12.5 | –
PRT1287 (EPCRKLYCLHGICQPNATPGPMCHCEAGWVGLHCD; listed as Homo sapiens) | – | 12.5
PRT1251 (CAFVCADCGSGHCDFQSGRCLCSPGVHGPHCN; listed as Homo sapiens) | – | 12.5

system: E. coli BL21; experiment: MIC against Gram-negative bacteria: E. coli BL21; type: cell-based; conditions: E. coli BL21; 96-well plate, 5×10^5 CFU/mL, 37° C., 10 h
How it was run: as §1

Substance | MIC (μg/mL) E. coli BL21 [µg/mL] | MIC against E. coli BL21 [µg/mL]
PRT98 (DINECATPSKVSCGKFSDCWNTEGSYDCVCSPGYEPVSGAKTFKNESENTCQ; listed as Homo sapiens) | 50 | –
PRT87 (DACLLNPCQNQGSCRHLPGAPHGYTCDCVGGYFGHHCE; listed as Homo sapiens) | 12.5 | –
PRT1287 (EPCRKLYCLHGICQPNATPGPMCHCEAGWVGLHCD; listed as Homo sapiens) | – | 25
PRT1251 (CAFVCADCGSGHCDFQSGRCLCSPGVHGPHCN; listed as Homo sapiens) | – | 25

system: Klebsiella pneumonia; experiment: MIC against Gram-negative bacteria: Klebsiella pneumonia; type: cell-based; conditions: Klebsiella pneumonia; 96-well plate, 5×10^5 CFU/mL, 37° C., 10 h
How it was run: as §1

Substance | MIC (μg/mL) K. pneumonia [µg/mL] | MIC against K. pneumonia [µg/mL]
PRT98 (DINECATPSKVSCGKFSDCWNTEGSYDCVCSPGYEPVSGAKTFKNESENTCQ; listed as Homo sapiens) | 12.5 | –
PRT87 (DACLLNPCQNQGSCRHLPGAPHGYTCDCVGGYFGHHCE; listed as Homo sapiens) | 50 | –
PRT1287 (EPCRKLYCLHGICQPNATPGPMCHCEAGWVGLHCD; listed as Homo sapiens) | – | 50
PRT1251 (CAFVCADCGSGHCDFQSGRCLCSPGVHGPHCN; listed as Homo sapiens) | – | 25

system: Moraxella catarrhalis; experiment: MIC against Gram-negative bacteria: Moraxella catarrhalis; type: cell-based; conditions: Moraxella catarrhalis; 96-well plate, 5×10^5 CFU/mL, 37° C., 10 h
How it was run: as §1

Substance | MIC (μg/mL) M. catarrhalis [µg/mL] | MIC against M. catarrhalis [µg/mL]
PRT98 (DINECATPSKVSCGKFSDCWNTEGSYDCVCSPGYEPVSGAKTFKNESENTCQ; listed as Homo sapiens) | 100 | –
PRT87 (DACLLNPCQNQGSCRHLPGAPHGYTCDCVGGYFGHHCE; listed as Homo sapiens) | 25 | –
PRT1287 (EPCRKLYCLHGICQPNATPGPMCHCEAGWVGLHCD; listed as Homo sapiens) | – | 50
PRT1251 (CAFVCADCGSGHCDFQSGRCLCSPGVHGPHCN; listed as Homo sapiens) | – | 25

system: Serratia marcescens; experiment: MIC against Gram-negative bacteria: Serratia marcescens; type: cell-based; conditions: Serratia marcescens; 96-well plate, 5×10^5 CFU/mL, 37° C., 10 h
How it was run: as §1

Substance | MIC (μg/mL) S. marcescens [µg/mL] | MIC against S. marcescens [µg/mL]
PRT98 (DINECATPSKVSCGKFSDCWNTEGSYDCVCSPGYEPVSGAKTFKNESENTCQ; listed as Homo sapiens) | 50 | –
PRT87 (DACLLNPCQNQGSCRHLPGAPHGYTCDCVGGYFGHHCE; listed as Homo sapiens) | 50 | –
PRT1287 (EPCRKLYCLHGICQPNATPGPMCHCEAGWVGLHCD; listed as Homo sapiens) | – | 50
PRT1251 (CAFVCADCGSGHCDFQSGRCLCSPGVHGPHCN; listed as Homo sapiens) | – | 50

system: Pseudomonas aeruginosa; experiment: MIC against Gram-negative bacteria: Pseudomonas aeruginosa; type: cell-based; conditions: Pseudomonas aeruginosa; 96-well plate, 5×10^5 CFU/mL, 37° C., 10 h
How it was run: as §1

Substance | MIC (μg/mL) P. aeruginosa [µg/mL] | MIC against P. aeruginosa [µg/mL]
PRT98 (DINECATPSKVSCGKFSDCWNTEGSYDCVCSPGYEPVSGAKTFKNESENTCQ; listed as Homo sapiens) | 25 | –
PRT87 (DACLLNPCQNQGSCRHLPGAPHGYTCDCVGGYFGHHCE; listed as Homo sapiens) | 12.5 | –
PRT1287 (EPCRKLYCLHGICQPNATPGPMCHCEAGWVGLHCD; listed as Homo sapiens) | – | 12.5
PRT1251 (CAFVCADCGSGHCDFQSGRCLCSPGVHGPHCN; listed as Homo sapiens) | – | 50

system: Aeromonas hydrophila; experiment: MIC against Gram-negative bacteria: Aeromonas hydrophila; type: cell-based; conditions: Aeromonas hydrophila; 96-well plate, 5×10^5 CFU/mL, 37° C., 10 h
How it was run: as §1

Substance | MIC (μg/mL) A. hydrophila [µg/mL] | MIC against A. hydrophila [µg/mL]
PRT98 (DINECATPSKVSCGKFSDCWNTEGSYDCVCSPGYEPVSGAKTFKNESENTCQ; listed as Homo sapiens) | 50 | –
PRT87 (DACLLNPCQNQGSCRHLPGAPHGYTCDCVGGYFGHHCE; listed as Homo sapiens) | 25 | –
PRT1287 (EPCRKLYCLHGICQPNATPGPMCHCEAGWVGLHCD; listed as Homo sapiens) | – | 50
PRT1251 (CAFVCADCGSGHCDFQSGRCLCSPGVHGPHCN; listed as Homo sapiens) | – | 25

system: E. coli DH5α; experiment: Antibacterial activity: MIC and growth curve against E. coli DH5α in 96-well plate; type: cell-based; conditions: minimal inhibitory concentration against E. coli DH5α; 96-well plate, 5×10^5 CFU/mL, 37° C., judged after 8 h
How it was run: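 Log-phase DH5α (OD600 about 0.5, 37° C, 185 rpm in LB) was pelleted, resuspended in fresh LB and seeded at 5×10^5 CFU/mL with recombinant protein at 50, 25 and 12.5 μg/mL (two-fold series), in triplicate. Plates were shaken at 175 rpm, 37° C, and OD600 was read every 30 min. MIC was the lowest concentration with no growth.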

Substance | MIC [µg/mL]
PRT98 (DINECATPSKVSCGKFSDCWNTEGSYDCVCSPGYEPVSGAKTFKNESENTCQ; listed as Homo sapiens) | 12.5
PRT87 (DACLLNPCQNQGSCRHLPGAPHGYTCDCVGGYFGHHCE; listed as Homo sapiens) | 12.5
PRT1287 (EPCRKLYCLHGICQPNATPGPMCHCEAGWVGLHCD; listed as Homo sapiens) | 50
PRT1251 (CAFVCADCGSGHCDFQSGRCLCSPGVHGPHCN; listed as Homo sapiens) | 100
